In patent US12577217B2, “15-PGDH inhibitor” (KYORIN Pharmaceutical Co., Ltd., priority 2019, dated 2026):

Biological target: T1, recombinant human 15-PGDH (Homo sapiens, UniProt P15428)
T1 construct: purchased R&D Systems
T1 sequence (P15428 1-266): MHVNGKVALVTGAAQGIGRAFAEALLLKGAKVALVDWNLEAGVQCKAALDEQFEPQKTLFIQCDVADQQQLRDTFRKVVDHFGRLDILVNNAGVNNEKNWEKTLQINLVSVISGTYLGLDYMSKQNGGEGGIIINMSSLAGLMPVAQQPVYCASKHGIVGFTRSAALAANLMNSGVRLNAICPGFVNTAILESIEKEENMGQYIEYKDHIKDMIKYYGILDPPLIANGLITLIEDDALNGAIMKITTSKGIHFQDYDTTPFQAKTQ
Test: 15-PGDH enzyme inhibition test
Format: biochemical
Settings: 4 nM recombinant human 15-PGDH, 30 μM PGE2, 1 mM NAD+, 60 minutes after starting the reaction; read-out: IC50 Value
Procedure: 15-PGDH Enzyme Inhibition Test
A test compound and 4 nM recombinant human 15-PGDH (R&D Systems) were added, in 50 mM Tris-HCl (pH 8.0) containing 0.01% TWEEN 20 (Sigma) and 0.01% bovine gamma globulin (Sigma), to a 384-well Flat Bottom Black plate (Corning, 3820), and the resultant was allowed to stand still at room temperature for 12 minutes, and 30 μM PGE2 (Cayman Chemical) and 1 mM NAD+ (Sigma) were added thereto to start the reaction. 60 minutes after starting the reaction, measurement was performed using Synergy 2 (BioTeck) at an excitation wavelength of 340 nm and a fluorescence wavelength of 440 nm. Assuming that a fluorescence signal obtained with an assay buffer added instead of the test compound and NAD+ was 100% and that a signal obtained with NAD+ added was 0%, a concentration corresponding to 50% inhibition plotted on a concentration-reaction curve of the test compound was defined as an IC50 value. Incidentally, in the following tables, an IC50 value smaller than 10 nM was shown as +++, an IC50 value equal to or larger than 10 nM and smaller than 100 nM was shown as ++, and an IC50 value equal to or larger than 100 nM was shown as +.

Compound: CCn1nc2cc(N3CCCc4cc(C(=O)N5CCC[C@@H](C(F)F)C5)cnc43)ccn2c1=O [Example 8-167]
- IC50: < 10 nM

Compound: CN(C)CCn1nc2cc(N3CCOc4cc(C(=O)N5CCCCC5)cnc43)ccn2c1=O [Example 1-33]
- IC50: < 10 nM

Compound: CN1CCN(c2ccn3c(=O)n(C)nc3c2)c2ncc(C(=O)N3CCC(F)(F)CC3)cc21 [Example 29-4]
- IC50: < 10 nM

Compound: CC(C)(C)OC(=O)c1ccc(N2CCOc3cc(C(=O)N4CCC[C@H](F)C4)cnc32)cc1 [Example 8-8]
- IC50: > 100 nM

Compound: Cn1nc2cc(N3CCOc4cc(C(=O)N5CCC(F)(F)CC5)ccc43)ccn2c1=O [Example 1-147]
- IC50: < 10 nM

Compound: O=C(c1cnc2c(c1)OCCN2c1ccc2nccnc2c1)N1CCCCC1 [Example 1-258]
- IC50: < 10 nM

Compound: CNC(=O)c1ncc(N2CCCc3cc(C(=O)N4CCCCC4)cnc32)cc1F [Example 1-69]
- IC50: < 10 nM

Compound: C[C@@H]1CCCN(C(=O)c2cnc3c(c2)CCCN3c2ccn3c(=O)n(C)nc3c2)C1 [Example 8-134]
- IC50: < 10 nM

Compound: Cn1nc2cc(N3CCCc4cc(C(=O)N5CCC(F)(F)CC5)cnc43)ccn2c1=O [Example 1-129]
- IC50: < 10 nM

Compound: O=C(c1cnc2c(c1)OCCN2c1ccn2c(=O)n(Cc3ccccc3)nc2c1)N1CCCCC1 [Example 1-31]
- IC50: < 10 nM

Compound: Cn1nc2cc(N3CCCc4cc(C(=O)N5CCC[C@H](CF)C5)cnc43)ccn2c1=O [Example 1-112]
- IC50: < 10 nM

Compound: COCCN1Cc2cc(N3CCOc4cc(C(=O)N5CCC(F)(F)CC5)cnc43)ccc2C1=O [Example 1-49]
- IC50: < 10 nM

Compound: Cn1nc2cc(N3CCOc4cc(C(=O)N5CCC[C@@H]5C(N)=O)cnc43)ccn2c1=O [Example 36-2]
- IC50: > 100 nM

Compound: COCCOCCn1nc2cc(N3CCCc4cc(C(=O)N5CCCCC5)cnc43)ccn2c1=O [Example 1-71]
- IC50: < 10 nM

Compound: CNC(=O)c1ccc(N2CCCc3cc(C(=O)N4CCCCC4)cnc32)cc1F [Example 1-59]
- IC50: < 10 nM

Compound: COC(=O)c1cccc(N2CCOc3cc(C(=O)N4CCCCC4)cnc32)c1 [Example 1-262]
- IC50: < 10 nM

Compound: Cn1nc2cc(N3CCOc4cc(C(O)C5CCCCC5)cnc43)ccn2c1=O (stereo not shown) [Example 19-1, 7-(7-(Cyclohexyl(hydroxy)methyl)-2,3-dihydro-4H-pyrido[3,2-b] [1,4]oxazin-4-yl)-2-methyl-[1,2,4]triazolo[4,3-a]pyridin-3 (2H)-one]
- IC50: < 10 nM

Compound: C[C@@H]1C[C@H](C)CN(C(=O)c2cnc3c(c2)OCCN3c2ccn3c(=O)n(C)nc3c2)C1 [Example 8-41]
- IC50: < 10 nM

Compound: CC(=O)N1CCN(C(=O)c2cnc3c(c2)OCCN3c2ccc3c(c2)CN(C)C3=O)CC1 [Example 8-190]
- IC50: > 100 nM

Compound: CCCn1nc2cc(N3CCOc4cc(C(=O)N5CCCCC5)cnc43)ccn2c1=O [Example 1-215]
- IC50: < 10 nM

Compound: Cc1nccc(N2CCOc3cc(C(=O)N4CCC(F)(F)CC4)ccc32)n1 [Example 24-3]
- IC50: 10 to 100 nM

Compound: COC(=O)C1CN(C(=O)c2cnc3c(c2)OCCN3c2ccn3c(=O)n(C)nc3c2)C1 [Example 8-37]
- IC50: < 10 nM

Compound: COc1cc(N2CCOc3cc(C(=O)N4CCCCC4)cnc32)cc2nn(C)c(=O)n12 [Example 1-230]
- IC50: 10 to 100 nM

Compound: CN(C)C(=O)c1ccc(N2CCCc3cc(C(=O)N4CCCCC4)cnc32)cc1 [Example 6-15]
- IC50: 10 to 100 nM

Compound: CCCCn1nc2cc(N3CCOc4cc(C(=O)N5CCCCC5)cnc43)ccn2c1=O [Example 1-216]
- IC50: < 10 nM

Compound: Cn1nc2cc(N3CCCc4cc(C(=O)N5CCCCC5)cnc43)ccn2c1=O [Example 1-94]
- IC50: < 10 nM

Compound: C[C@@H]1CCCCN1C(=O)c1cnc2c(c1)OCCN2c1ccc2c(c1)CN(C)C2=O [Example 8-195]
- IC50: < 10 nM

Compound: CC1CN(C(=O)c2cnc3c(c2)CCCN3c2ccn3c(=O)n(C)nc3c2)CCC1(F)F (stereo not shown) [Example 8-144]
- IC50: < 10 nM

Compound: CCCCN1Cc2cc(N3CCCc4cc(C(=O)N5CCCCC5)cnc43)ccc2C1=O [Example 1-197]
- IC50: < 10 nM

Compound: CCOCCN1Cc2cc(N3CCOc4cc(C(=O)N5CCC(F)(F)CC5)cnc43)ccc2C1=O [Example 1-50]
- IC50: < 10 nM

Compound: CCn1nc2cc(N3CCCc4cc(C(=O)N5CCc6ccccc6C5)cnc43)ccn2c1=O [Example 8-155]
- IC50: < 10 nM

Compound: CCc1ccc(N2CCOc3cc(C(=O)N4CCCCC4)cnc32)cc1 [Example 1-244]
- IC50: 10 to 100 nM

Compound: COc1ccc(CN2Cc3cc(N4CCOc5cc(C(=O)N6CCCCC6)cnc54)ccc3C2=O)cc1 [Example 1-37]
- IC50: < 10 nM

Compound: Cn1nc2cc(N3CCOc4cc(C(=O)N5CCC(F)CC5)cnc43)ccn2c1=O [Example 8-114]
- IC50: < 10 nM

Compound: Cn1nc2cc(N3CCOc4cc(C(=O)N5CCC[C@H](O)C5)cnc43)ccn2c1=O [Example 8-38]
- IC50: < 10 nM

Compound: COC(=O)c1ccccc1N1CCc2cc(C(=O)N3CCCCC3)ccc21 [Example 1-138]
- IC50: > 100 nM

Compound: CCN1Cc2cc(N3CCCc4cc(C(=O)N5CCN(C(C)=O)CC5)cnc43)ccc2C1=O [Example 8-74]
- IC50: > 100 nM

Compound: CN1Cc2cc(N3CCCc4cc(C(=O)N5CCCCC5)cnc43)ncc2C1=O [Example 1-56]
- IC50: 10 to 100 nM

Compound: Cn1nc2cc(N3CCN(c4ncc(Cl)s4)c4cc(C(=O)N5CCC(F)(F)CC5)cnc43)ccn2c1=O [Example 30-4]
- IC50: < 10 nM

Compound: Cn1nc2cc(N3CCOc4cc(C(=O)N5CCC(O)CC5)cnc43)ccn2c1=O [Example 8-230]
- IC50: < 10 nM

Compound: O=C(c1cnc2c(c1)OCCN2c1ccn2c(=O)n(CC(F)(F)F)nc2c1)N1CCCCC1 [Example 27-3]
- IC50: < 10 nM

Compound: Cn1cnc2cc(N3CCCc4cc(C(=O)N5CCC(F)(F)CC5)cnc43)cnc2c1=O [Example 1-191]
- IC50: < 10 nM

Compound: CCCN(C)C(=O)c1cnc2c(c1)OCCN2c1ccn2c(=O)n(C)nc2c1 [Example 17-1, N-Methyl-4-(2-methyl-3-oxo-2,3-dihydro-[1,2,4]triazolo[4,3-a]pyridin-7-yl)-N-propyl-3,4-dihydro-2H-pyrido[3,2-b][1,4]oxazine-7-carboxamide]
- IC50: < 10 nM

Compound: C[C@@H]1CCCN1C(=O)c1cnc2c(c1)OCCN2c1ccn2c(=O)n(C)nc2c1 [Example 8-22]
- IC50: 10 to 100 nM

Compound: CCn1nc2cc(N3CCOc4cc(C(=O)N5CCCC5)cnc43)ccn2c1=O [Example 8-19]
- IC50: < 10 nM

Compound: COCCN(C)C(=O)c1cnc2c(c1)OCCN2c1ccn2c(=O)n(C)nc2c1 [Example 8-106]
- IC50: < 10 nM

Compound: Cn1nc2cc(N3CCOc4cc(C(=O)N5CCCC6(COC6)C5)cnc43)ccn2c1=O [Example 8-52]
- IC50: 10 to 100 nM

Compound: CC1CCN(C(=O)c2cnc3c(c2)OCCN3c2ccn3c(=O)n(C)nc3c2)CC1 [Example 8-44]
- IC50: < 10 nM

Compound: O=C(c1cnc2c(c1)CCCN2c1cc2c(cn1)C(=O)N(C1COC1)C2)N1CCCCC1 [Example 1-74]
- IC50: 10 to 100 nM

Compound: COCn1nc2cc(N3CCCOc4cc(C(=O)N5CCCCC5)cnc43)ccn2c1=O [Example 1-52]
- IC50: < 10 nM

Compound: Cn1nc2cc(N3CCOc4cc(C(=O)N5CCC(F)(F)CC5)cnc43)ccn2c1=O [Example 8-26]
- IC50: < 10 nM

Compound: CCN1Cc2cc(N3CCOc4cc(C(=O)N5CCC(F)(F)CC5)cnc43)ccc2C1=O [Example 8-212]
- IC50: < 10 nM

Compound: COc1cc(N2CCOc3cc(C(=O)N4CCCCC4)ccc32)ccc1C(=O)O [Example 2-12]
- IC50: < 10 nM

Compound: CCn1nc2cc(N3CCCc4cc(C(=O)N5CCC(F)(F)C(C)C5)cnc43)ccn2c1=O (stereo not shown) [Example 8-169]
- IC50: < 10 nM

Compound: COc1c(C(=O)N2CCCCC2)ccc2c1OCCN2c1ccn2c(=O)n(C)nc2c1 [Example 1-100]
- IC50: < 10 nM

Compound: CCn1nc2cc(N3CCCc4cc(C(=O)N5CCOCC5)cnc43)ccn2c1=O [Example 8-151]
- IC50: 10 to 100 nM

Compound: O=C(O)c1ccc(N2CCCOc3cc(C(=O)N4CCCCC4)ccc32)cc1 [Example 2-5]
- IC50: < 10 nM

Compound: O=C(O)c1ccccc1N1CCCc2cc(C(=O)N3CCCCC3)cnc21 [Example 1-212]
- IC50: 10 to 100 nM

Compound: COCn1nc2cc(N3CCOc4cc(C(=O)N5CCC(F)(F)CC5)ccc43)ccn2c1=O [Example 1-154]
- IC50: < 10 nM

Compound: CN1Cc2cc(N3CCOc4cc(C(=O)N5CCC[C@H](C(F)F)C5)cnc43)ccc2C1=O [Example 8-206]
- IC50: < 10 nM

Compound: CN1CCN(C(=O)c2cnc3c(c2)OCCN3c2ccc(C(=O)O)cc2)CC1 [Example 4-11]
- IC50: 10 to 100 nM

Compound: COCCNC(=O)c1ccc(N2CCCc3cc(C(=O)N4CCC(F)(F)CC4)cnc32)cc1F [Example 1-176]
- IC50: < 10 nM

Compound: CC(C)n1nc2cc(N3CCOc4cc(C(=O)N5CCCCC5)cnc43)ccn2c1=O [Example 1-27]
- IC50: < 10 nM

Compound: O=C(c1cnc2c(c1)CCCN2c1ccn2c(=O)[nH]nc2c1)N1CCC[C@H](CF)C1 [Example 1-145]
- IC50: < 10 nM

Compound: CCn1nc2cc(N3CCCc4cc(C(=O)N5CCC(C)CC5)cnc43)ccn2c1=O [Example 8-161]
- IC50: < 10 nM

Compound: CCCCn1nc2cc(N3CCCc4cc(C(=O)N5CCCCC5)cnc43)ccn2c1=O [Example 1-203]
- IC50: < 10 nM

Compound: COC(=O)C1CCCN(C(=O)c2cnc3c(c2)OCCN3c2ccn3c(=O)n(C)nc3c2)C1 (stereo not shown) [Example 8-36]
- IC50: < 10 nM
